Reference: patent publication US11525165B2, “Method of selection of an IRE1-inhibitor therapy for patient suffering from cancer” (INSERM (INSTITUT NATIONAL DE LA SANTÉ ET DE LA RECHERCHE …, priority 2017, dated 2022)

System: U87 cells
Assay: miR-17 level under tunicamycin-induced ER stress
Assay type: cell-based
Conditions: data not shown
Description: U87MG (ATCC) and U251MG (Sigma, St Louis, Mo., USA) cells were authenticated as recommended by AACR (http://aacrjournals.org/content/cell-line-authentication-information) and tested for the absence of mycoplasma using MycoAlert® (Lonza, Basel, Switzerland) or MycoFluor (Invitrogen, Carlsbad, Calif., USA). U87 cells (ATCC) were grown in DMEM glutamax (Invitrogen, Carlsbad, Calif., USA) supplemented with 10% FBS. U87 were stably transfected at MOI=0.3 with pCDH-CMV-MCS-EF1-Puro-copGFP (System biosciences) empty vector (EV), pCDH-CMV-MCS-EF1-Puro-copGFP containing IRE1alpha wild-type sequence (WT) or mutated sequence (P336L, A414T, S769F or Q780*). U87 cells were selected using 2 μg/mL puromycin and polyclonal populations were tested for GFP expression. Transfections of GBM primary cell lines with IRE1 WT and Q780* were performed using Lipofectamine LTX (ThermoFisher Scientific), according to the manufacturer's instructions. For microarray experiments, tunicamycin (purchased from Calbiochem (Merck KGaA, Darmstadt, Germany)) was used at […] for 16 hrs. Actinomycin D were purchased from Sigma-Aldrich (St Louis, Mo., USA) and used as indicated. […]
Total RNA was prepared using the Trizol reagent (Invitrogen, Carlsbad, Calif., USA). Semi-quantitative analyses were carried out as previously described. […]

**Q.** How did the miR-17 degradation turn out when tunicamycin was run?
**A.** led to further miR-17 degradation
